Assay results taken from patent publication US5763453A, “Condensed indan derivatives and salts thereof” (Taiho Pharmaceutical Co., Ltd., priority 1995, dated 1998).
Values after ≈ are worked out from the molar mass of the structure shown. Structures can show the parent of a compound that is named as a salt.

test system: P 388 mouse leukemia cell line; test: Cytocidal effect on P 388 mouse leukemia cells (crystal violet cytometry, three days' incubation); format: cell-based; settings: P388, 72 h, 2×10^3 cells/well, read-out: IC50 (concentration at which the cell count is 50% less than that of the control)
Experimental: Cytocidal Effect A 96-well plate was innoculated with 2×10^3 cells/well of P 388 mouse leukemia cell line. The compound of the present invention was dissoved in purified water or dimethylsulfoxide, and the solution was diluted with medium to various concentrations and placed into respective wells and incubated. After three day's incubation, the plate was fixed with glutaraldehyde and stained with crystal violet for cytometry.

`O=C1c2ccccc2-c2nc3ccc(O)cc3c(N3CCC(N4CCCCC4)CC3)c21` [Compound 16-a] was tested. Which IC50 did it give?
The IC50 was 0.43 µg/mL (≈ 1.04 µM).

How did the IC50 turn out when `CN(C)CCNc1c2c(nc3ccccc13)-c1cc(O)ccc1C2=O` [Compound 3-a] was run?
Its IC50 is 0.15 µg/mL (≈ 0.45 µM).

Which IC50 does the source give for `CN(C)CCNc1c2c(nc3cc(O)ccc13)-c1ccccc1C2=O` [Compound 5] here?
The IC50 was 0.052 µg/mL (≈ 0.156 µM).

With `CN(C)CCNc1c2c(nc3ccccc13)-c1ccc(O)cc1C2=O.Cl.Cl` [Compound 2, 10-(((dimethylamino)ethyl)amino)-2-hydroxy-11H-indeno[1,2-b]quinolin-11-one dihydrochloride] as the compound, how does the IC50 read?
The IC50 was 0.15 µg/mL.

`COc1ccc2c(NCCN(C)C)c3c(nc2c1)-c1ccccc1C3=O` [Compound 4] was tested. Which IC50 did it give?
The IC50 was 0.25 µg/mL (≈ 0.72 µM).

How did the IC50 turn out when `CN(C)CCNc1c2c(nc3ccc(O)cc13)-c1ccccc1C2=O` [Compound 12] was run?
The IC50 was 0.16 µg/mL (≈ 0.48 µM).

With `CCN(CC)CCOc1c2c(nc3ccc(O)cc13)-c1ccccc1C2=O` [Compound 11, 10-(((diethylamino)ethoxy)-8-hydroxy-11H-indeno[1,2-b]quinolin-11-one hydrochloride] as the compound, how does the IC50 read?
The IC50 was 0.096 µg/mL.

With `CN1CCN(c2c3c(nc4ccc(O)cc24)-c2ccccc2C3=O)CC1` [Compound 14] as the compound, how does the IC50 read?
Its IC50 is 0.22 µg/mL (≈ 0.637 µM).

`CCN(CC)CCSc1c2c(nc3ccc(O)cc13)-c1ccccc1C2=O` [Compound 10-a] was tested. Which IC50 did it give?
The IC50 was 0.42 µg/mL (≈ 1.11 µM).

Which IC50 does the source give for `CN(C)CCCNc1c2c(nc3cc(O)ccc13)-c1ccccc1C2=O` [Compound 7-a] here?
Its IC50 is 0.16 µg/mL (≈ 0.461 µM).

Which IC50 does the source give for `COc1ccc2c(c1)C(=O)c1c-2nc2ccccc2c1NCCN(C)C.Cl.Cl` [Compound 1, 10-(((dimethylamino)ethyl)amino)-2-methoxy-11H-indeno[1,2-b]quinolin-11-one dihydrochloride] here?
The IC50 was 0.34 µg/mL.

With `COc1ccc2nc3c(c(N4CCN(C)CC4)c2c1)C(=O)c1ccccc1-3` [Compound 13] as the compound, how does the IC50 read?
The IC50 was 0.37 µg/mL (≈ 1.03 µM).
